Reference: patent US20100000032A1, “PHENOXAZINE DYES” (Wetlands Incubator sprl, priority 2008, published 2010)
One block for each compound: values may come before it.

Tests used:
[1] = Water fastness of dyeing, ISO 105 E01; assay type: physicochemical; conditions: for Water fastness, staining, acrylic / Water fastness, staining, cellulose acetate / Water fastness, staining, cotton / Water fastness, staining, nylon / Water fastness, staining, polyester / Water fastness, staining, wool: rating 1-5; for Water fastness, colour change: polyamide 6 knitted fabric, rating 5 = no colour change, 1 = high colour change
Experimental: (§1) The fastness properties of the dyeings (textile and leather) were measured in accordance with ISO standards mentioned in Table 3. The results shown in Table 3 are the visual assessment described in ISO105-A02: 1993 textiles—test for colour fastness—part A02. On this scale, a rating of 5 means no colour change and a rating of 1 means a high colour change.

[2] = Light fastness of dyeing, ISO 105 B02; assay type: physicochemical; conditions: polyamide 6 knitted fabric, rating 5 = no colour change, 1 = high colour change
Experimental: as §1

[3] = Chlorinated water fastness of dyeing, ISO 105 E03; assay type: physicochemical; conditions: polyamide 6 knitted fabric, rating 5 = no colour change, 1 = high colour change
Experimental: as §1

[4] = Washing fastness of dyeing, ISO 105 C06: A2S; assay type: physicochemical; conditions: for Washing fastness, staining, acrylic / Washing fastness, staining, cellulose acetate / Washing fastness, staining, cotton / Washing fastness, staining, nylon / Washing fastness, staining, polyester / Washing fastness, staining, wool: rating 1-5; for Washing fastness, colour change: polyamide 6 knitted fabric, rating 5 = no colour change, 1 = high colour change
Experimental: as §1

[5] = system: rainbow trout gonad (RTG-2) fish cell line; assay: In vitro toxicity, neutral red uptake; assay type: cell-based; conditions: Oncorhynchus mykiss, concentration at which 50% of the cells die, exposure at least 48 hr, highest concentration tested 0.5 g/L, read-out: NRTG-2 cells IC50
Experimental: (§2) The toxicity of compounds 17 and 18 were assessed with an in vitro method using the Caco-2 human intestinal cell line and the rainbow trout gonad (RTG-2) fish cell line. […] Subsequently, the cells were exposed to a series of concentrations of the test compounds, and two blanks, for at least 48 hr until 90% confluence was attained in the blanks. The highest concentration tested being 0.5 g/L. Thereafter, the exposure medium containing the test compounds was decanted and the cells in the microplate wells were gently washed with phosphate buffered saline solution. In order to measure the number of viable cells remaining after the exposure to the test compounds, the cells were exposed to a solution of neutral red in cell culture medium for 3 hr. […] Finally, the neutral red solution was decanted, the wells were again gently washed and then a solution of 1% acetic acid in 50% ethanol was added to the wells to dissolve the neutral red taken up by the viable cells. The absorbance of each well at 540 nm was measure with an appropriate microplate reader. The amount of neutral red present in each well is an indication of the number of viable cells and when compared to the values for the blanks can be used to calculate a percentage of cell death. An IC50 value, the concentration of the test compounds at which 50% of the cells die, can be determined if at least one of the tested compounds produces more than 50% cell death and at least one produces less; the results concerning compounds 17 and 18 are given in Table 4. If none of the tested concentrations produces more than 50% cell death, than an estimating can be made if at least some effect is noticeable. Comparing IC50 values among test compounds and with known toxicants allows for an assessment of their relative toxicities.

[6] = system: Caco-2 human intestinal cell line; assay: In vitro toxicity, neutral red uptake; assay type: cell-based; conditions: concentration at which 50% of the cells die, exposure at least 48 hr, highest concentration tested 0.5 g/L
Experimental: as §2

- Water fastness, staining, acrylic ([1]; 2% omf): 4/5
- Water fastness, staining, cellulose acetate ([1]; 2% omf): 4/5
- Water fastness, staining, cotton ([1]; 2% omf): 4/5
- Water fastness, staining, nylon ([1]; 2% omf): 3/4
- Water fastness, staining, polyester ([1]; 2% omf): 4/5
- Water fastness, staining, wool ([1]; 2% omf): 4
- Water fastness, colour change ([1]; 2% omf): 3
- Light fastness ([2]; 2% omf): >3
- Chlorinated water fastness, colour change ([3]; 2% omf): 3
- Washing fastness, staining, acrylic ([4]; 2% omf): 4/5
- Washing fastness, staining, cellulose acetate ([4]; 2% omf): 4/5
- Washing fastness, staining, cotton ([4]; 2% omf): 4/5
- Washing fastness, staining, nylon ([4]; 2% omf): 3/4
- Washing fastness, staining, polyester ([4]; 2% omf): 4/5
- Washing fastness, staining, wool ([4]; 2% omf): 4
- Washing fastness, colour change ([4]; 2% omf): 3
Compound: Nc1c(S(=O)(=O)O)c2nc3c(S(=O)(=O)O)cccc3oc-2cc1=O [Compound 17, 2-Amino-3oxo-3H-phenoxazine-1,9-disulfonic acid]
- IC50 [5]: > 780 µg/mL
- IC50 [6]: > 550 µg/mL

- Water fastness, staining, acrylic ([1]; 1% omf): 4/5
- Water fastness, staining, cellulose acetate ([1]; 1% omf): 4
- Water fastness, staining, cotton ([1]; 1% omf): 4
- Water fastness, staining, nylon ([1]; 1% omf): 3
- Water fastness, staining, polyester ([1]; 1% omf): 4/5
- Water fastness, staining, wool ([1]; 1% omf): 2/3
- Water fastness, colour change ([1]; 1% omf): 4
- Light fastness ([2]; 1% omf): 3
- Chlorinated water fastness, colour change ([3]; 1% omf): 3/4
- Washing fastness, staining, acrylic ([4]; 1% omf): 4/5
- Washing fastness, staining, cellulose acetate ([4]; 1% omf): 4/5
- Washing fastness, staining, cotton ([4]; 1% omf): 4/5
- Washing fastness, staining, nylon ([4]; 1% omf): 4/5
- Washing fastness, staining, polyester ([4]; 1% omf): 4/5
- Washing fastness, staining, wool ([4]; 1% omf): 4/5
- Washing fastness, colour change ([4]; 1% omf): 4
Compound: Nc1cc2nc3cc(S(=O)(=O)O)ccc3oc-2cc1=O [Compound 18, 2-Amino-3oxo-3H-phenoxazine-8-sulfonic acid]
- IC50 [6]: > 686 µg/mL
